Laboratory results: Sander's compilation of Henry's law constants (doi:10.1021/jf001510f)

Assay: Henry solubility constant Hcp at 310 K (mol/(m3 Pa))
Conditions: reference: van Ruth et al. (2001)

| Henry solubility constant Hcp at 310 K | Compound |
| --- | --- |
| 0.16 | CCCCCCO [1-hexanol] |
| 0.65 | CCCO [1-propanol] |
| 0.015 | CCCCCCCCC(C)=O [2-decanone] |
| 0.025 | CCCCCC(C)=O [2-heptanone] |
| 0.069 | CCCCCCCC(C)O (stereo not given) [2-nonanol] |
| 0.018 | CCCCCCC(C)=O [2-octanone] |
| 0.23 | CCCC(C)O (stereo not given) [2-pentanol] |
| 0.32 | CC(C)CCO [3-methyl-1-butanol] |
| 0.0049 | CSC [dimethyl sulfide] |
| 0.016 | CCCC(=O)OCC [ethyl butanoate] |
| 0.03 | CCOC(C)=O [ethyl ethanoate] |
| 0.011 | CCCCCCC=O [heptanal] |
| 0.0088 | CCCCCCCC=O [octanal] |
| 0.018 | CCCOC(C)=O [propyl ethanoate] |

| Compound | Henry solubility constant Hcp at 310 K |
| --- | --- |
| CCCCOC(C)=O [butyl ethanoate] | 0.017 |
